Structures can show the parent of a compound that is named as a salt. Where two headings read alike, the source gives them in different places.

Test [1] deals with T cells. The conditions noted are these: cited from earlier work.
Test [2] has as its system TNF-α. The conditions noted are these: concentration up to 20 μM; cited from earlier work.
The target of test [3] is IDO-1 (Homo sapiens (Human), UniProt P14902). The test can be described thus: Indoleamine-2,3-dioxygenase 1 inhibitory activity (absorbance at 321 nm). The class given is biochemical.
Sequence of IDO-1 (P14902 whole entry): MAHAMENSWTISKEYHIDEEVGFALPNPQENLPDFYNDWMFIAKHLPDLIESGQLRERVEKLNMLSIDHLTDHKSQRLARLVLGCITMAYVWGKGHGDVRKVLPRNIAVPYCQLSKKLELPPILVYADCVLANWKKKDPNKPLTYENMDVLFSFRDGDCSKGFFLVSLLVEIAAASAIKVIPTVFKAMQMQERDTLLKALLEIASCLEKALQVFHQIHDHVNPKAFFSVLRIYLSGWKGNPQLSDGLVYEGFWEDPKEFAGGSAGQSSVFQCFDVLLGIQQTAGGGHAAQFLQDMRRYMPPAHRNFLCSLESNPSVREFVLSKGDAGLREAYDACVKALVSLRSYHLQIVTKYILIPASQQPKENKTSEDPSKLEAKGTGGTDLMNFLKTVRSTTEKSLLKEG
Procedure: Experimental method: IDO-1 can oxidatively cleave the indole ring of tryptophan to form N-formylkynurenine. Referring to the method in the literature (Eddy W. Yue, et al. J. Med. Chem. 2009, 52, 7364-7367), 20 nM IDO-1, 2 mM D-tryptophan, 20 mM ascorbic acid, 3.5M methyl blue and 0.2 mg/mL antioxidant enzyme were sequentially added to 50 mM potassium phosphate buffer at room temperature. Due to the formation of N-formylkynurenine, the reaction rate was recorded by the increasing absorbance of the solution at 321 nm. IC50 values were calculated using Prism GraphPad software.
In test [4] the target is TDO (Homo sapiens (Human), UniProt P48775). The test can be described thus: Tryptophan-2,3-dioxygenase inhibitory activity (absorbance at 321 nm). The class given is biochemical. The conditions noted are these: read-out: TDO Inhibition rate. Here is the method:
Experimental method: TDO can oxidatively cleave the indole ring of tryptophan to form N-formylkynurenine. Referring to the method in the reference (Eddy W. Yue, et al. J. Med. Chem. 2009, 52, 7364-7367), a detection buffer containing 50 nM TDO, 10μM inhibitor, 200μM tryptophan, and the like were sequentially added thereto at room temperature. Due to the formation of N-formylkynurenine, the reaction rate was recorded by the increasing absorbance of the solution at 321 nm. IC50 values were calculated using Prism GraphPad software.

Test [5] concerns Lewis lung cancer. The test can be described thus: Lewis lung cancer in mice, in vivo anti-tumor experiment. The conditions noted are these: intraperitoneal 20 mg/Kg, 11 days. Also on record: species or system C57BL/6J mice.
Procedure: The observation and measurement were started on the day of the first administration, and the relevant indicators were recorded. The tumor-bearing mice were sacrificed at the end of the experiment, and the tumor pieces were dissected and weighed. The tumor-bearing mice were administered intraperitoneally for 11 days. […] After 11 days of continuous intraperitoneal injection of tumor-bearing mice, the animals were euthanized, the subcutaneous tumors were dissected, weighed, photographed, and the animals were dissected for gross observation.
For test [6], the system named is melanoma B16. The test can be described thus: Repeated verification, melanoma B16 in mice experiment. The class given is in vivo, C57BL/6J mice. The conditions noted are these: intragastric 20 mg/kg once daily, 14 days. Here is the method:
The in vivo efficacy of compound was tested in three groups (6 in each group) of C57BL/6J mice bearing melanoma B16. CY-1-26 hydrochloride was intragastrically administered at 20 mg/kg (suspended in 0.5% sodium carboxymethyl cellulose solution), and 1-MT was a positive control (200 mg/kg, suspended in 0.5% sodium carboxymethyl cellulose solution), the blank control was 0.5% sodium carboxymethyl cellulose solution, all once daily dose. On the day of the first dose, the relevant indicators were observed, measured and recorded. At the end of the experiment, the tumor-bearing mice were sacrificed and the tumor pieces were dissected and weighed.
The tumor-bearing mice were administered by continuous intragastric administration for 14 days. The body weight of the animals in the drug-administered group was slightly slower than that of the negative control group. The animals were in good condition and no obvious side effects were observed.
After 14 days of administration, the animals were euthanized, the subcutaneous tumors were dissected, weighed, and the animals were dissected for gross observation.

For test [7], the system named is melanoma B16. As to the kind of experiment: Melanoma B16 in mice experiment. The class given is in vivo, C57BL/6J mice. The conditions noted are these: intragastric once daily, 10 days; CY-1-26 20 mg/kg, 1-MT 200 mg/kg. As to the method:
The in vivo efficacy of compound was tested with C57BL/6J mice bearing melanoma B16. The intragastric administration was 20 mg/kg, and 1-MT was a positive control (200 mg/kg), which was once daily. The observation and measurement were started on the day of the first administration, and the relevant indicators were recorded. The tumor-bearing mice were sacrificed at the end of the experiment, and the tumor pieces were dissected and weighed.
The tumor-bearing mice were administered by continuous intragastric administration for 10 days. The body weight of the animals in the drug-administered group was slightly slower than that of the negative control group. The animals were in good condition and no obvious side effects were observed.
After 10 days of administration, the animals were euthanized, the subcutaneous tumors were dissected, weighed, and the animals were dissected for gross observation.

Where [8] appears, read: 20 nM IDO-1, 2 mM D-tryptophan, read-out: IDO-1 inhibitory activity, IC50.
Setting [9] is: Table 1, comparison with tryptanthrins 5a, 5b, 5c, 5i, read-out: Comparison of inhibitory activity of the IDO1, IC50.
[10] abbreviates: compound at 10 μM, 50 nM TDO, 200 μM tryptophan.

Sequence of TDO (P48775 whole entry): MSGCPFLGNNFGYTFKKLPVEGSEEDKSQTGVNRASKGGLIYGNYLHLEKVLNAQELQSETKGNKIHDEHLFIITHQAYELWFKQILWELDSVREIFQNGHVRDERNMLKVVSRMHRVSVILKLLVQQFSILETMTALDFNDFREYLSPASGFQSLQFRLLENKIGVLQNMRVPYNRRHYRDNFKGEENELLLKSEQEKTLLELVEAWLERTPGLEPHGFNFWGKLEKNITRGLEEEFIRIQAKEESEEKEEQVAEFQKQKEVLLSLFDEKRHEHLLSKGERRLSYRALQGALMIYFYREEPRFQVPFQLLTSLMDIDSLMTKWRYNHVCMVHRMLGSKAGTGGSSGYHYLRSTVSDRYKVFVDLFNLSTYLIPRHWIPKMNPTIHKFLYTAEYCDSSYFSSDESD

In the case of `O=C1c2cc(F)ccc2-n2c1nc1ccccc1c2=O`, the “proliferation of T cells” value in test [1] is “can promote the proliferation of T cells”.

In the case of `O=C1c2cc([N+](=O)[O-])ccc2-n2c1nc1cccnc1c2=O` [8-nitro-1-aza-tryptanthrin], in test [2], the “activity in production of TNF-α” value is “did not exhibit activity”.

Usually IC50 stands for the point on the concentration scale where inhibition reaches its midpoint. In the case of `O=C1c2ccccc2-n2c1nc1ncccc1c2=O` [CY-1-1, pyrido[2′,3′:4,5]pyrimido[1,2-α]indole-5,11-dione], the figures for the half-maximal inhibitory concentration (IC50) in test [3] (setting [8]) and in test [3] (setting [9]) were 110 to 1000 nM and 100 to 1000 nM, respectively.

What is called inhibition is the share of the control response that was lost under treatment. In the case of `O=C1c2cc(F)ccc2-n2c1nc1ncccc1c2=O` [CY-1-2, 9-fluoropyrido[2′,3′:4,5]pyrimido[1,2-c]indole-5,11-dione], in test [4] (setting [10]), the inhibition at 10 µM turned out to be 44%.

For `O=C1c2cc(OC(F)(F)F)ccc2-n2c1nc1ncccc1c2=O` [CY-1-3, 9-(trifluoromethoxy)pyrido[2′,3′:4,5]pyrimido[1,2-c]indole-5,11-dione], the inhibition at 10 µM in test [4] (setting [10]) came to 16%.

For the compound `O=C1c2cc([N+](=O)[O-])ccc2-n2c1nc1ncccc1c2=O` [CY-1-4, 9-nitropyridine[2′,3′:4,5]pyrimido[1,2-c]indole-5,11-dione], in test [4], the inhibition at 10 µM was 97%.

For the compound `O=C1c2cc(Cl)ccc2-n2c1nc1ncccc1c2=O` [CY-1-5, 9-chloropyrido[2′,3′:4,5]pyrimido[1,2-c]indole-5,11-dione], the inhibition at 10 µM in test [4] (setting [10]) is 35%.

With `COc1ccc2c(c1)C(=O)c1nc3ncccc3c(=O)n1-2` [CY-1-6, 9-methoxypyrido[2′,3′:4,5]pyrimido[1,2-c]indole-5,11-dione], the half-inhibitory concentration (IC50) in test [3] (setting [8]) lay in the range of 110 to 1000 nM.

In the case of `Cc1ccc2c(c1)C(=O)c1nc3ncccc3c(=O)n1-2` [CY-1-7, 9-methylpyrido[2′,3′:4,5]pyrimido[1,2-c]indole-5,11-dione], the values for the concentration for half-maximal inhibition (IC50) in test [3] (setting [8]) and in test [3] (setting [9]) were 110 to 1000 nM and 100 to 1000 nM, respectively.

On to `O=C1c2ccccc2-n2c1nc1cnccc1c2=O` [CY-1-8, pyrido[3′,4′:4,5]pyrimido[1,2-c]indole-5,11-dione], for which the values for the half-maximal inhibitory concentration (IC50) in test [3] (setting [8]) and in test [3] (setting [9]) were 110 to 1000 nM and 100 to 1000 nM, respectively.

For `COc1ccc2c(c1)C(=O)c1nc3cnccc3c(=O)n1-2` [CY-1-9, 9-methoxypyrido[3′,4′:4,5]pyrimido[1,2-c]indole-5,11-dione], in test [3] (setting [8]), the 50% inhibitory concentration (IC50) lay in the range of 1100 to 10000 nM.

Take `O=C1c2cc(Cl)ccc2-n2c1nc1cnccc1c2=O` [CY-1-10, 9-chloropyrido[3′,4′: 4,5]pyrimido[1,2-α]indole-5,11-dione]: the half-inhibitory concentration (IC50) in test [3] (setting [8]) fell in the range of 110 to 1000 nM. Besides, the inhibition at 10 µM in test [4] was 8%.

As for `O=C1c2cc(F)ccc2-n2c1nc1cnccc1c2=O` [CY-1-11, 9-fluoropyrido[3′,4′:4,5]pyrimido[1,2-α]indole-5,11-dione], the IC50 was 110 to 1000 nM in test [3] (setting [8]) and 100 to 1000 nM in test [3] (setting [9]).

As for `O=c1c2cccnc2nc2n1-c1ccccc1C2=NO` [CY-1-12, 11-(hydroxyimino)pyrido[2′,3′:4,5]pyrimido[1,2-α]indol-5(11H)-one], the IC50 in test [3] (setting [8]) lay in the range of 1100 to 10000 nM.

On to `O=c1c2cccnc2nc2n1-c1ccc(Cl)cc1C2=NO` [CY-1-13, 9-chloro-11-(hydroxyimino)pyrido[2′,3′:4,5]pyrimido[1,2-α]indole-5(11H)-one], for which the half-maximal inhibitory concentration (IC50) in test [3] (setting [8]) was 110 to 1000 nM. For the same compound, the inhibition at 10 µM in test [4] (setting [10]) stood at 6%.

For the compound `Cc1ccc2c(c1)C(=NO)c1nc3ncccc3c(=O)n1-2` [CY-1-14, 11-(hydroxyimino)-9-methylpyrido[2′,3′: 4,5]pyrimido[1,2-α]indole-5 (11H)-one], in test [3] (setting [8]), the IC50 lay within 1100 to 10000 nM.

Take `COc1ccc2c(c1)C(=NO)c1nc3ncccc3c(=O)n1-2` [CY-1-15, 11-(hydroxyimino)-9-methoxypyrido[2′,3′:4,5]pyrimido[1,2-α]indole-5(11H)-one]: in test [3] (setting [8]), the IC50 fell in the range of 1100 to 10000 nM.

In the case of `CN(C)CCON=C1c2ccccc2-n2c1nc1ncccc1c2=O` [CY-1-16, 11-((2-(dimethylamino)ethoxy)imino)pyrido[2′,3′:4,5]pyrimido[1,2-α]indole-5(11H)-one], the IC50 in test [3] (setting [8]) was 110 to 1000 nM.

Turning to `CN(C)CCON=C1c2cc([N+](=O)[O-])ccc2-n2c1nc1ncccc1c2=O` [CY-1-17, 11-((2-(dimethylamino)ethoxy)imino)-9-nitropyrido[2′,3′:4,5]pyrimido[1,2-α]indol-5(11H)-one], in test [4] (setting [10]), the inhibition at 10 µM stood at 64%. Besides, the “tumor inhibition rate (tumor weight)” value in test [5] came out at 51.8%.

`CN(C)CCON=C1c2cc(Cl)ccc2-n2c1nc1ncccc1c2=O` [CY-1-18, 9-chloro-11-((2-(dimethylamino)ethoxy)imino)pyrido[2′,3′:4,5]pyrimido[1,2-α]indol-5(11H)-one]: the half-maximal inhibitory concentration (IC50) in test [3] (setting [8]) lay within 110 to 1000 nM.

Regarding `CN(C)CCON=C1c2cc(F)ccc2-n2c1nc1ncccc1c2=O` [CY-1-19, 11-((2-(dimethylamino)ethoxy)imino)-9-fluoropyrido[2′,3′:4,5]pyrimido[1,2-α]indol-5(11H)-one], the 50% inhibitory concentration (IC50) in test [3] (setting [8]) was 110 to 1000 nM.

`CN(C)CCCON=C1c2cc(Cl)ccc2-n2c1nc1ncccc1c2=O` [CY-1-20, 9-chloro-11-((3-(dimethylamino)propoxy)imino)pyrido[2′,3′:4,5]pyrimido[1,2-α]indol-5(11H)-one]: the half-inhibitory concentration (IC50) in test [3] (setting [8]) lay in the range of 1100 to 10000 nM.

On to `O=c1c2cccnc2nc2n1-c1ccc([N+](=O)[O-])cc1C2=NOCCO` [CY-1-21, 11-((2-hydroxyethoxy)imino)-9-nitropyrido[2′,3′:4,5]pyrimido[1,2-α]indol-5(11H)-one], for which the 50% inhibitory concentration (IC50) in test [3] (setting [8]) fell in the range of 110 to 1000 nM.

For the compound `N=C(N)NN=C1c2cc([N+](=O)[O-])ccc2-n2c1nc1ncccc1c2=O` [CY-1-23, 2-(9-nitro-5-oxopyrido[2′,3′:4,5]pyrimido[1,2-c]indol-11(5H)-ylidene)hydrazine-1-carboximidamide], in test [4], the inhibition at 10 µM came to 86%.

For `O=c1c2cccnc2nc2n1-c1ccc([N+](=O)[O-])cc1C2=NOS(=O)(=O)O` [CY-1-24, (((9-nitro-5-oxopyrido[2′,3′:4,5]pyrimido[1,2-α]indol-11(5H)-ylidene)amino)oxy) sulfonic acid], the 50% inhibitory concentration (IC50) in test [3] (setting [8]) is 110 to 1000 nM.

Consider `CON=C1c2cc([N+](=O)[O-])ccc2-n2c1nc1ncccc1c2=O` [CY-1-25, 11-(methoxyimino)-9-nitropyrido[2′,3′: 4,5]pyrimido[1,2-α]indol-5 (11H)-one], for which the half-maximal inhibitory concentration (IC50) in test [3] (setting [8]) was in the range of 110 to 1000 nM.

Regarding `CCON=C1c2cc([N+](=O)[O-])ccc2-n2c1nc1ncccc1c2=O` [CY-1-26 hydrochloride], the “tumor inhibition rate (tumor weight)” value in test [6] turned out to be 46.0%.

Regarding `CCON=C1c2cc([N+](=O)[O-])ccc2-n2c1nc1ncccc1c2=O` [CY-1-26, 11-(ethoxyimino)-9-nitropyrido[2′,3′:4,5]pyrimido[1,2-α]indol-5(11H)-one], in test [3] (setting [8]), the 50% inhibitory concentration (IC50) is 1100 to 10000 nM. The “tumor inhibition rate (tumor weight)” value in test [7] is given as 33.0%.

Consider `C=CCON=C1c2cc([N+](=O)[O-])ccc2-n2c1nc1ncccc1c2=O` [CY-1-27, 11-((allyloxy)imino)-9-nitropyrido[2′,3′:4,5]pyrimido[1,2-α]indol-5(11H)-one], for which the half-inhibitory concentration (IC50) in test [3] (setting [8]) fell in the range of 1100 to 10000 nM.

Consider `NC(=S)NN=C1c2cc([N+](=O)[O-])ccc2-n2c1nc1ncccc1c2=O` [CY-1-29, 2-(9-nitro-5-oxopyrido[2′,3′:4,5]pyrimido[1,2-c]indol-11(5H)-ylidene)hydrazine-1-carbothioamide], for which, in test [4] (setting [10]), the inhibition at 10 µM worked out at 93%.

With `COc1ccc2c(c1)C(=NNC(=S)N(C)C)c1nc3ncccc3c(=O)n1-2` [CY-1-30, 2-(9-methoxy-5-oxopyrido[2′,3′:4,5]pyrimido[1,2-α]indol-11(5H)-ylidene)-N,N-di methyl-hydrazine-1-carbothioamide], in test [3] (setting [8]), the IC50 lay within 1100 to 10000 nM.

On to `Cn1cc(CC(N)C(=O)O)c2ccccc21` (centres unmarked) [Compound 1-MT, reference compound], for which the “tumor inhibition rate (tumor weight)” value in test [7] is given as 26.3%.

Turning to `O=P1(N(CCCl)CCCl)NCCCO1` (centres unmarked) [cyclophosphamide, reference compound], in test [5], the “tumor inhibition rate (tumor weight)” value was determined as 29.9%.

The values are drawn from patent US10669273B2, “Use of aza-tryptanthrin derivatives as inhibitors of IDO1 and/or TDO” (Peking University, priority 2016, dated 2020).
